Data published in article PMC12675387, “Receptor interaction profiles of 4-alkoxy-2,6-dimethoxyphenethylamines (Ψ derivatives) and related amphetamines” (Frontiers in Pharmacology, 2025).

Legend:
[1] = molecular target: rTAAR1 (Rattus norvegicus, UniProt Q923Y9); experiment: Radioligand binding, rat TAAR1 ([3H]RO5166017)
[2] = molecular target: T1, human 5-HT2A receptor (Homo sapiens, UniProt P28223); experiment: Activation potency and efficacy at the 5-HT2A receptor (FLIPR calcium, NIH-3T3 cells); assay type: cell-based; settings: for Emax: NIH3T3, relative to 5-HT (100%), read-out: h5-HT2A activation efficacy Emax ± SD
T1 construct: expressed in transfected cells; host or cells: NIH-3T3 mouse embryonic fibroblasts
T1 sequence (P28223 whole entry): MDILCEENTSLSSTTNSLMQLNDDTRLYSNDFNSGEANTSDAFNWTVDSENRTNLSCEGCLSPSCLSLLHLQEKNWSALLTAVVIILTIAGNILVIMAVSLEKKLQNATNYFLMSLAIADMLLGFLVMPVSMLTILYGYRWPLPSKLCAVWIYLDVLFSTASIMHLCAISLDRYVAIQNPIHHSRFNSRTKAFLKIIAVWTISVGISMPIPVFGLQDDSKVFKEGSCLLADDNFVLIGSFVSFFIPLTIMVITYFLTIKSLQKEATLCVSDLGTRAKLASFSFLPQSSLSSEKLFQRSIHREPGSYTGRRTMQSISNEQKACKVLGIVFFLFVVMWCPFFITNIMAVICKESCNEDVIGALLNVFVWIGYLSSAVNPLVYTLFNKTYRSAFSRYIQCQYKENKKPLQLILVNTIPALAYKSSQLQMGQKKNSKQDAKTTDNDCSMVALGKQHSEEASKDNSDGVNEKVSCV
Experimental: The activation potency and efficacy at the 5-HT2A receptor were determined as previously described by [Luethi et al. (2018)]. In short, mouse embryonic fibroblasts (NIH-3T3 cells) stably transfected with the human 5-HT2A receptor were seeded in poly-D-lysine-coated 96 well plates at a density of 70,000 cells per 100 μL. Next, the cells were incubated in HEPES-Hank’s Balanced Salt Solution (HBSS) buffer (Gibco) for 1 h at 37 °C; the cells were then incubated with 100 μL of dye solution (fluorescence imaging plate reader [FLIPR] calcium 5 assay kit; Molecular Devices, Sunnyvale, CA, United States) per well for 1 h at 37 °C. The plate was then inserted into the FLIPR and 25 μL of the test compounds diluted in HEPES-HBSS buffer containing […] probenecid were added online. Increase of the fluorescence signal was measured and the activation potency (EC50) was calculated from the dose-response curves using nonlinear regression. The activation efficacy was calculated relative to 5-HT activity (defined as 100% activity).

[3] = molecular target: T2, hα2A adrenergic receptor (Homo sapiens, UniProt P08913); experiment: Radioligand binding, α2A adrenergic receptor ([3H]rauwolscine)
T2 sequence (P08913 1-465): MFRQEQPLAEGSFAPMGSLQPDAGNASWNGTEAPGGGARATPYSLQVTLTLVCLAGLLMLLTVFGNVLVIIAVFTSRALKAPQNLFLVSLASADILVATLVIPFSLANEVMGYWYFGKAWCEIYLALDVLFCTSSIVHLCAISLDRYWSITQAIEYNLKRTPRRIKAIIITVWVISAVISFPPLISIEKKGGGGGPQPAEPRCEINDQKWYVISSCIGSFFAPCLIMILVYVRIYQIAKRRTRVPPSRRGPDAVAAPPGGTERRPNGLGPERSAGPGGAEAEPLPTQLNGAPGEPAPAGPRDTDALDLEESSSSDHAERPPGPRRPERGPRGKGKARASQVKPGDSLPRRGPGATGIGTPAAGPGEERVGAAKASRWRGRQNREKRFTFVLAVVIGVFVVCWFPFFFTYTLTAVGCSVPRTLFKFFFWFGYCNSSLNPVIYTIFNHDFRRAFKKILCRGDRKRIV

[4] = molecular target: hNET (Homo sapiens, UniProt P23975); experiment: Radioligand binding, NET (N-methyl-[3H]nisoxetine)
Sequence of hNET (P23975 whole entry): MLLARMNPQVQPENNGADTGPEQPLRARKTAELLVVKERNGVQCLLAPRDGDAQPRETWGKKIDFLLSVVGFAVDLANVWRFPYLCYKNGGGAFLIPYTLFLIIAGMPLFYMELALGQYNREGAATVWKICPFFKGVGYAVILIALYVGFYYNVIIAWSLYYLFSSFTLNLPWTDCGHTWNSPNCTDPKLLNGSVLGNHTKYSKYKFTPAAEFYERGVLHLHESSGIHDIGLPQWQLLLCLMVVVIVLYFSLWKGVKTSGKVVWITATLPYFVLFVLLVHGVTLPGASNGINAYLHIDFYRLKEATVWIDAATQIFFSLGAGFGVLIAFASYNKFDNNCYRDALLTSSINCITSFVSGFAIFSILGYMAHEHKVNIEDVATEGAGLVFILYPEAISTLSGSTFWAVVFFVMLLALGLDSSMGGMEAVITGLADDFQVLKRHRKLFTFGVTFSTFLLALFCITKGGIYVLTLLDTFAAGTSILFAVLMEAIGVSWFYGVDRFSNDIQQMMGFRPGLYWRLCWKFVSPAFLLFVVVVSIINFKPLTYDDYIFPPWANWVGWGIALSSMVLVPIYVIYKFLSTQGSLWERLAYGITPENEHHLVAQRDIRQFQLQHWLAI

[5] = molecular target: T3, h5-HT2C receptor (Homo sapiens, UniProt P28335); experiment: Radioligand binding, 5-HT2C receptor ([3H]mesulergine)
T3 sequence (P28335 33-458): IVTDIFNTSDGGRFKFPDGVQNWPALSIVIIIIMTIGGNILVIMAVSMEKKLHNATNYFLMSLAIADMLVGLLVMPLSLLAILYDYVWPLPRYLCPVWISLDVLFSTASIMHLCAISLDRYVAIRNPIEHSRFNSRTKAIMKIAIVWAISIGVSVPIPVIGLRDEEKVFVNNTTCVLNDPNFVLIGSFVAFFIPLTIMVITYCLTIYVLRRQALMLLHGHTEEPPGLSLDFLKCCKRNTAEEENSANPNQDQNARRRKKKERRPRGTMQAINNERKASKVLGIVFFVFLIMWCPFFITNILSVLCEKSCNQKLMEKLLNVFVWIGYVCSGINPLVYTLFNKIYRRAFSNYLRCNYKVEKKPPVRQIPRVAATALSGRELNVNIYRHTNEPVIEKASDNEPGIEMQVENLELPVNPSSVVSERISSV

[6] = molecular target: h5-HT2A receptor (Homo sapiens, UniProt P28223); experiment: Radioligand binding, 5-HT2A receptor ([3H]ketanserin); settings: for Selectivity (binding ratio) 5-HT2A/5-HT1A: preference for 5-HT2A (Ki 5-HT1A divided by Ki 5-HT2A); for Selectivity (binding ratio) 5-HT2A/5-HT2C: preference for 5-HT2A (Ki 5-HT2C divided by Ki 5-HT2A); for fold difference in 5-HT2A receptor affinity between Ψ derivative and its 2,4,5-trisubstituted counterpart: TMA-6 vs TMA-2, Ψ-2C-O-16 vs 2C-O-16, Ψ-MALM vs MALM: higher affinity of the Ψ derivative
Sequence of h5-HT2A receptor (P28223 whole entry): as the sequence (P28223 whole entry) above

[7] = molecular target: mTAAR1 (Mus musculus, UniProt Q923Y8); experiment: Radioligand binding, mouse TAAR1 ([3H]RO5166017)
Sequence of mTAAR1 (Q923Y8 whole entry): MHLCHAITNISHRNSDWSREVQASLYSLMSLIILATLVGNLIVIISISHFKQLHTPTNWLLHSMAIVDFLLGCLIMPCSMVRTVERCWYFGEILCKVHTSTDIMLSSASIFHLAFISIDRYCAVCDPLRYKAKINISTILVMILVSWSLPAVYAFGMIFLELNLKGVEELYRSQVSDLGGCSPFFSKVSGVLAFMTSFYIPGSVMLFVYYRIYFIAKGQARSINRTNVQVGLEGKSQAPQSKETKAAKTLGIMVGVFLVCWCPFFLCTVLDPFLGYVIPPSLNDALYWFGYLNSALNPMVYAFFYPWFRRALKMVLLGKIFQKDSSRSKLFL

[8] = molecular target: hDAT (Homo sapiens, UniProt Q01959); experiment: Radioligand binding, DAT ([3H]WIN35,428); settings: hDAT Ki ± SD, [3H]WIN35,428
Sequence of hDAT (Q01959 whole entry): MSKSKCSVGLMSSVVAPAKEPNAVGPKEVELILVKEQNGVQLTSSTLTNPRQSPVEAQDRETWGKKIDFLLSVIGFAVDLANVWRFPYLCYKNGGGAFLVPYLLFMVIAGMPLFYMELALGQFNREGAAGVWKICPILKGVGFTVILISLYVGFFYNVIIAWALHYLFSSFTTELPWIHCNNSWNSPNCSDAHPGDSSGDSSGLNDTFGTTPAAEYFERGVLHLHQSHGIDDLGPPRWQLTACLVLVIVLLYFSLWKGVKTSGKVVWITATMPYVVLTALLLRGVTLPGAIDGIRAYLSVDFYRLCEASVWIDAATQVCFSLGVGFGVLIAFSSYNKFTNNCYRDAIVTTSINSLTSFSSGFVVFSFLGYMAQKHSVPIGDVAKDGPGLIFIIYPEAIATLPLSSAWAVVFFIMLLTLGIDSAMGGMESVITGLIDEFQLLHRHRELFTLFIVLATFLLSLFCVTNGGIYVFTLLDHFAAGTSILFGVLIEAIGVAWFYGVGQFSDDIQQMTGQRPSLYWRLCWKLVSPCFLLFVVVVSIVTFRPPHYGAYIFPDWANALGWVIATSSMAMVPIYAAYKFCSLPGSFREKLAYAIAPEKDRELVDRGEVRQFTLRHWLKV

[9] = molecular target: T4, human 5-HT2B receptor (Homo sapiens, UniProt P41595); experiment: Activation potency and efficacy at the 5-HT2B receptor (Fluo-4 calcium, HEK 293 cells); assay type: cell-based; settings: for Emax: HEK293, relative to 5-HT (100%), read-out: h5-HT2B activation efficacy Emax ± SD
T4 construct: expressed in transfected cells; host or cells: HEK 293 cells
T4 sequence (P41595 whole entry): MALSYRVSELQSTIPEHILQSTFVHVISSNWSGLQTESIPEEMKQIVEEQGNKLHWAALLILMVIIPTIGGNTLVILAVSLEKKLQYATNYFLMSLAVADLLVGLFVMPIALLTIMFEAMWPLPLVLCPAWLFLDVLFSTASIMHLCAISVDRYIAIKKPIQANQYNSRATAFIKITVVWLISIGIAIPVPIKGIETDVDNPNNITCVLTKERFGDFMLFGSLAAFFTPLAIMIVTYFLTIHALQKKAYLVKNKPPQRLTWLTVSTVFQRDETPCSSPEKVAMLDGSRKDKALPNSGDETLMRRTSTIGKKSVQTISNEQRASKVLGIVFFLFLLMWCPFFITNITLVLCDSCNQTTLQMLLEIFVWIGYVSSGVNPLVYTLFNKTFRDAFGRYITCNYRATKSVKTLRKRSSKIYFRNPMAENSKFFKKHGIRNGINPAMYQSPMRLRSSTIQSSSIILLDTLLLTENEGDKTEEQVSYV
Experimental: The activation potency and efficacy at the 5-HT2B receptor were determined as previously described by [Luethi et al. (2018)]. In summary, HEK 293 cells stably transfected with the human 5-HT2B receptor were seeded in poly-D-lysine-coated 96 well plates at a density of 50,000 cells per well overnight at 37 °C in high glucose Dulbecco’s modified Eagle’s medium (DMEM; Invitrogen, Zug, Switzerland) supplemented with 10% fetal calf serum (non-dialyzed and heat-inactivated), 250 mg/L Geneticin, and 100 U/mL penicillin, and 100 μg/mL streptomycin (Gibco). The growth medium was removed by snap inversion and the cells were exposed to 100 μL calcium indication Fluo-4-solution (Molecular Probes, Eugene, OR, United States) for 45 min at 31 °C. Thereafter, the Fluo-4-solution was removed once again by snap inversion and was replaced with fresh 100 μL Fluo-4-solution. Next, the cells were washed with HBSS and 20 mM HEPES using the EMBLA cell washer and then exposed to the assay buffer (100 μL per well). Afterwards, 25 μL of test compounds diluted in assay buffer were added to the plate online. Dose–response curves were determined using nonlinear regression and EC50 values were calculated. The activation efficacy was calculated relative to the 5-HT activity (defined as 100%).

[10] = molecular target: hSERT (Homo sapiens, UniProt P31645); experiment: Radioligand binding, SERT ([3H]citalopram); settings: hSERT Ki ± SD, [3H]citalopram
Sequence of hSERT (P31645 whole entry): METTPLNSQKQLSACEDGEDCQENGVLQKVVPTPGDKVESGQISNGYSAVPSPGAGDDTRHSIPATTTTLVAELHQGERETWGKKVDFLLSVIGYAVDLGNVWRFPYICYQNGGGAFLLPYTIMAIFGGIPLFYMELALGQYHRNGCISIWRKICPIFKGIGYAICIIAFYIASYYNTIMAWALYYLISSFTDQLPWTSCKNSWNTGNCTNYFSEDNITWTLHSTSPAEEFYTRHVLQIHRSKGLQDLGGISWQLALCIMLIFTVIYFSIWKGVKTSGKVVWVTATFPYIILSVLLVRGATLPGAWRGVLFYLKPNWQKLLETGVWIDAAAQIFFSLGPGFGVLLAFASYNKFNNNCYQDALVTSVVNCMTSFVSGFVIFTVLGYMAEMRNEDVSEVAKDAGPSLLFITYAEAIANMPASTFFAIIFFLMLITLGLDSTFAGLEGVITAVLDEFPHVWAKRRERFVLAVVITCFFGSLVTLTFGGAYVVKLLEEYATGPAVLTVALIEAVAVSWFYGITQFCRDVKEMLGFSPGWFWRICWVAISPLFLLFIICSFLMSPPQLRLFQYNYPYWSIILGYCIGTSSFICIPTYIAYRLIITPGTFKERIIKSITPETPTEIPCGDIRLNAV

Sequence of rTAAR1 (Q923Y9 whole entry): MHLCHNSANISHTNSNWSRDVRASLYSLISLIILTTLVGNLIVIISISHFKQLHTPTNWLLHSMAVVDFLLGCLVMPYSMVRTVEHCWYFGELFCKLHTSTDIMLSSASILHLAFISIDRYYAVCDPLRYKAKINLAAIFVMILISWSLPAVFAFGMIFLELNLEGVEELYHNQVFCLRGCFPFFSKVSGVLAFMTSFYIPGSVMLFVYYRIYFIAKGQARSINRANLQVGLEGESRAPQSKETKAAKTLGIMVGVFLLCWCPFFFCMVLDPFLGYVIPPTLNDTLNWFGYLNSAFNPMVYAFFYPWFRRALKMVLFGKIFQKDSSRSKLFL

Row | Compound | Ki [1] | EC50 [2] | Emax [2] | Ki [3] | Ki [4] | Ki [5] | Ki [6] | Selectivity (binding ratio) 5-HT2A/5-HT1A [6] | Selectivity (binding ratio) 5-HT2A/5-HT2C [6] | Ki [7] | Ki [8] | EC50 [9] | Emax [9] | Ki [10] | fold difference in 5-HT2B activation potency, amphetamine vs phenethylamine counterpart ([9]; Ψ-MEM vs Ψ-2C-O-2) | fold difference in 5-HT2A receptor affinity between Ψ derivative and its 2,4,5-trisubstituted counterpart [6]
1 | COc1cc(OC)c(CCN)c(OC)c1 [Ψ-2C-O-1, 2,4,6-trimethoxyphenethylamine] | 57 ± 12 nM | 110 ± 20 nM | 84 ± 13% | 780 ± 70 nM | > 8.8 µM | 1200 nM | 300 ± 40 nM | 3.2 | 4 | 590 ± 20 nM | > 8.5 µM | 330 ± 250 nM | 22 ± 8% | > 7.5 µM | – | –
2 | CCOc1cc(OC)c(CC(C)N)c(OC)c1 (stereo not drawn) [Ψ-MEM, 2,6-dimethoxy-4-ethoxyamphetamine] | 110 ± 10 nM | 650 ± 210 nM | 54 ± 5% | 2200 nM | > 8.8 µM | 5100 nM | 490 ± 20 nM | >11 | 10 | 400 ± 20 nM | > 8.5 µM | 260 ± 160 nM | 28 ± 11% | > 7.5 µM | 8 fold | –
3 | C=CCOc1cc(OC)c(CCN)c(OC)c1 [Ψ-2C-O-16, 4-allyloxy-2,6-dimethoxyphenethylamine] | 12 nM | 39 ± 19 nM | 49 ± 20% | 310 ± 20 nM | > 8.8 µM | 500 ± 230 nM | 54 ± 4 nM | 17 | 9.3 | 150 ± 20 nM | > 8.5 µM | 91 ± 31 nM | 27 ± 8% | > 7.5 µM | – | 2–5 fold
4 | COc1cc(OCC(F)(F)F)cc(OC)c1CC(C)N (stereo not drawn) [Ψ-MTFEM, 2,6-dimethoxy-4-(2,2,2-trifluoroethoxy)amphetamine] | 110 ± 40 nM | 1100 nM | 33 ± 6% | 3800 nM | > 8.8 µM | 5500 nM | 570 ± 80 nM | >10 | 9.6 | 410 ± 80 nM | 6.4 µM | > 10000 nM | – | > 7.5 µM | – | –
5 | COc1cc(OCC(F)F)cc(OC)c1CCN [Ψ-2C-O-21.5, 4-(2,2-difluoroethoxy)-2,6-dimethoxyphenethylamine] | 14 ± 3 nM | 740 ± 80 nM | 31 ± 5% | 1000 nM | > 8.8 µM | 2800 nM | 1600 nM | 0.8 | 1.8 | 220 ± 40 nM | > 8.5 µM | > 10000 nM | – | > 7.5 µM | – | –
6 | C=C(C)COc1cc(OC)c(CCN)c(OC)c1 [Ψ-2C-O-3, 2,6-dimethoxy-4-methallyloxyphenethylamine] | 6.4 ± 1.1 nM | 200 ± 20 nM | 23 ± 10% | 280 ± 30 nM | > 8.8 µM | 210 ± 140 nM | 32 ± 8 nM | 32 | 6.6 | 120 ± 20 nM | 7.8 µM | 310 ± 240 nM | 17 ± 4% | > 7.5 µM | – | –
7 | COc1cc(OC)c(CC(C)N)c(OC)c1 (stereo not drawn) [TMA-6, 2,4,6-trimethoxyamphetamine] | 180 ± 20 nM | 70 ± 32 nM | 61 ± 12% | 3100 nM | > 8.8 µM | 1800 nM | 270 ± 18 nM | >21 | 6.7 | 850 ± 20 nM | > 8.5 µM | 150 ± 20 nM | 59 ± 3% | > 7.5 µM | – | 2–5 fold
